ChEMBL document CHEMBL1201862, “PubChem BioAssay data set” (2004)
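48-hour exposure; five concentrations; linearly interpolated endpoints. Abbreviation: GI50, concentration required for 50% inhibition of growth.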 The source made the active and inactive calls. No stated cut-off is given here; in the data, active = GI50 up to about 1.1 µM and inactive = higher.

Assays:
Test in all cases: growth of human tumour cells (NCI), 48 h
LXFL 529 = test system: LXFL 529
NCI-H23 = test system: NCI-H23
EKVX = test system: EKVX
SNB-75 = test system: SNB-75
MOLT-4 = test system: MOLT-4
DMS-114 = test system: DMS-114
SK-MEL-5 = test system: SK-MEL-5
SK-MEL-28 = test system: SK-MEL-28
OVCAR-5 = test system: OVCAR-5
RXF 393 = test system: RXF 393
KM-20L2 = test system: KM-20L2
M19-MEL = test system: M19-MEL
786-0 = test system: 786-0
U-251 = test system: U-251
SNB-19 = test system: SNB-19
NCI-H460 = test system: NCI-H460
SF-295 = test system: SF-295
OVCAR-3 = test system: OVCAR-3
OVCAR-4 = test system: OVCAR-4
HT-29 = test system: HT-29
ACHN = test system: ACHN
UO-31 = test system: UO-31
CAKI-1 = test system: CAKI-1
SR = test system: SR
UACC-62 = test system: UACC-62
XF498 = test system: XF498
NCI-H226 = test system: NCI-H226
A549 = test system: A549
SF-268 = test system: SF-268
KM12 = test system: KM12
SK-OV-3 = test system: SK-OV-3
IGROV-1 = test system: IGROV-1
SK-MEL-2 = test system: SK-MEL-2
LOX IMVI = test system: LOX IMVI
SW-620 = test system: SW-620
Malme-3M = test system: Malme-3M
COLO 205 = test system: COLO 205
OVCAR-8 = test system: OVCAR-8
SN12C = test system: SN12C
HOP-92 = test system: HOP-92
SNB-78 = test system: SNB-78
M14 = test system: M14
NCI-H522 = test system: NCI-H522
DMS-273 = test system: DMS-273
K562 = test system: K562
TK-10 = test system: TK-10
HCT-116 = test system: HCT-116
DLD-1 = test system: DLD-1
SF-539 = test system: SF-539
CCRF-CEM = test system: CCRF-CEM
RPMI-8226 = test system: RPMI-8226
HCT-15 = test system: HCT-15
HL-60 = test system: HL-60
UACC-257 = test system: UACC-257
HOP-18 = test system: HOP-18
HOP-62 = test system: HOP-62
HCC 2998 = test system: HCC 2998
A498 = test system: A498

Measured: GI50

CC12Oc3ccc4ccccc4c3C1c1c(ccc3ccccc13)O2 (stereo unspecified)
inactive: LXFL 529 > 100 µM | NCI-H23 > 100 µM | EKVX > 100 µM | SNB-75 43.3 µM | MOLT-4 > 100 µM | DMS-114 > 100 µM | SK-MEL-5 > 100 µM | SK-MEL-28 > 100 µM | OVCAR-5 > 100 µM | RXF 393 > 100 µM | KM-20L2 > 100 µM | M19-MEL > 100 µM | 786-0 > 100 µM | U-251 > 100 µM | SNB-19 > 100 µM | NCI-H460 > 100 µM | SF-295 58.6 µM | OVCAR-3 > 100 µM | OVCAR-4 35.9 µM | HT-29 > 100 µM | ACHN > 100 µM | UO-31 > 100 µM | CAKI-1 > 100 µM | SR > 100 µM | UACC-62 > 100 µM | XF498 > 100 µM | NCI-H226 > 100 µM | A549 > 100 µM | SF-268 > 100 µM | KM12 > 100 µM | SK-OV-3 > 100 µM | IGROV-1 > 100 µM | SK-MEL-2 > 100 µM | LOX IMVI > 100 µM | SW-620 > 100 µM | Malme-3M > 100 µM | COLO 205 > 100 µM | OVCAR-8 > 100 µM | SN12C > 100 µM | HOP-92 17.1 µM | SNB-78 > 100 µM | M14 > 100 µM | NCI-H522 > 100 µM | DMS-273 > 100 µM | K562 > 100 µM | TK-10 > 100 µM | HCT-116 > 100 µM | DLD-1 > 100 µM | SF-539 78.2 µM | CCRF-CEM > 100 µM

Cc1ccc(NC(=O)C2C(=O)N(c3ccc(C)c(C)c3)C(=O)/C2=N\NC(N)=O)cc1C (stereo unspecified)
79.4 µM: HCT-15
inactive: LXFL 529 59.7 µM | NCI-H23 42.8 µM | EKVX 55.8 µM | SNB-75 > 100 µM | MOLT-4 88.9 µM | RPMI-8226 69.2 µM | DMS-114 56.9 µM | SK-MEL-5 > 100 µM | SK-MEL-28 > 100 µM | OVCAR-5 > 100 µM | RXF 393 > 100 µM | KM-20L2 > 100 µM | M19-MEL > 100 µM | 786-0 > 100 µM | U-251 57.3 µM | SNB-19 > 100 µM | NCI-H460 > 100 µM | SF-295 86.9 µM | OVCAR-3 38.4 µM | OVCAR-4 > 100 µM | HL-60 81.5 µM | HT-29 > 100 µM | ACHN > 100 µM | UO-31 57.4 µM | CAKI-1 > 100 µM | UACC-62 94.6 µM | XF498 > 100 µM | NCI-H226 > 100 µM | A549 52.8 µM | SF-268 74 µM | KM12 > 100 µM | SK-OV-3 > 100 µM | IGROV-1 89.5 µM | SK-MEL-2 96.4 µM | LOX IMVI > 100 µM | SW-620 > 100 µM | Malme-3M > 100 µM | UACC-257 > 100 µM | HOP-18 7.85 µM | COLO 205 > 100 µM | OVCAR-8 62.2 µM | SN12C 77.3 µM | HOP-92 63.5 µM | SNB-78 > 100 µM | M14 > 100 µM | NCI-H522 55.1 µM | K562 52.7 µM | TK-10 > 100 µM | HOP-62 > 100 µM | HCT-116 85.3 µM | DLD-1 > 100 µM | HCC 2998 > 100 µM | SF-539 > 100 µM | A498 > 100 µM | CCRF-CEM 73.8 µM
